Test results published in patent US20230321066A1, “PREVENTATIVE TREATMENT OF MIGRAINE” (priority 2020, published 2023).

Assays:
[1] = tested on: episodic and chronic migraine patients; experiment: BHV3000-305 study: adverse events and liver safety on double-blind treatment
[2] = tested on: episodic and chronic migraine patients; settings: human, in vivo, 12 weeks
[3] = tested on: episodic and chronic migraine patients; experiment: BHV3000-305 Phase 2/3 randomized, double-blind, placebo-controlled study of rimegepant in migraine prevention: efficacy; type: in vivo, human
Method: Clinical Trial—BHV3000-305: A Phase 2/3, Randomized, Double-blind, Placebo-controlled Study to Evaluate the Efficacy and Safety of Rimegepant in Migraine Prevention (ClinicalTrials.gov Identifier: NCT03732638).
A phase 2/3 clinical study was conducted with 1629 participants, as follows.
The purpose of this is study is to compare the efficacy of BHV-3000 (rimegepant) to placebo as a preventive treatment for migraine, as measured by the reduction in the number of migraine days per month.
• Study Type: Interventional (Clinical Trial) • Actual Enrollment: 1629 participants • Allocation: Randomized • Intervention Model: Parallel Assignment • Masking: Triple (Participant, Care Provider, Investigator) • Primary Purpose: Prevention • Official Title: A Phase 2/3, Randomized, Double-blind, Placebo-controlled Study to Evaluate the Efficacy and Safety of Rimegepant in Migraine Prevention • Actual Study Start Date: Nov. 14, 2018 • Actual Primary Completion Date: Dec. 10, 2019
Primary Outcome Measures: • 1. Change from baseline in mean number of migraine days per month [Time Frame: Mean number of migraine days per month as assessed over 3 months (12 weeks)] • Change from baseline in mean number of migraine days per month as measured over the 12-week double-blind phase of the study.
Secondary Outcome Measures: • 1. Achievement of at least a 50% reduction from baseline in mean number of moderate to severe monthly migraine days. [Time Frame: baseline to end of Week 12] • Achievement of at least a 50% reduction from baseline in mean number of moderate to severe monthly migraine days over course of the double-blind treatment phase. • 2. The mean number of rescue medication days per month. [Time Frame: baseline to end of week 12 as measure per month] • The mean number of rescue medication days per month over the course of the double-blind, treatment phase. Rescue medications include the rescue medications defined in this protocol. • 3. Adverse events. [Time Frame: baseline to end of Week 12] • Adverse events that occur in at least 5% of treated subjects; the frequency of unique subjects with serious adverse events, adverse events leading to discontinuation and clinically significant laboratory abnormalities, as reported on case report forms. • 4. The frequency of AST or ALT elevations. [Time Frame: baseline to end of Week 12] • The frequency of AST or ALT elevations>3×ULN, concurrently with bilirubin elevations>2×ULN, will be assessed by tabulating the number of unique subjects with this pairing of events. • 5. The frequency of hepatic-related adverse events and hepatic-related treatment. [Time Frame: baseline to end of Week 12] • The frequency of hepatic-related adverse events and hepatic-related treatment discontinuations will be tabulated from case report forms and will be based on unique subjects reporting such events. • 6. The mean change from baseline in the MSQ role function [Time Frame: baseline to end of Week 12] • The mean change from baseline in the MSQ role function—restrictive domain score at Week 12 of the double-blind treatment phase. • 7. The mean change from baseline in the MIDAS total score. [Time Frame: baseline to end of Week 12] • The mean change from baseline in the MIDAS total score at Week 12 of the double-blind treatment phase.
This pivotal study enrolled patients with both episodic and chronic migraine. The study evaluated the efficacy and safety of rimegepant 75 mg (n=370) dosed every other day for the preventive treatment of migraine in patients versus placebo (n=371) who had migraine for at least one year and 4 to 18 moderate to severe migraine attacks per month over three months prior to enrollment. During the one-month observation period, patients experienced on average 10.7 migraine days per month, with 7.4 migraine days of moderate to severe migraine during the same period.

[4] = 370 patients who received rimegepant 75 mg every other day
[5] = Severity Mild, treated subjects N = 370
[6] = Severity Moderate or Severe, treated subjects N = 370
[7] = Severity Moderate, treated subjects N = 370
[8] = Severity Total, treated subjects N = 370

Q: Which results are given for `N[C@@H]1c2cccnc2[C@H](OC(=O)N2CCC(n3c(=O)[nH]c4ncccc43)CC2)CC[C@H]1c1cccc(F)c1F` [Rimegepant, [(5S,6S,9R)-5-amino-6-(2,3-difluorophenyl)-6,7,8,9-tetrahydro-5H-cyclohepta[b]pyridin-9-yl] 4-(2-oxo-3H-imidazo[4,5-b]pyridin-1-yl)piperidine-1-carboxylate]?
A: ALT/AST elevations: relatedness to study drug as judged by independent liver monitoring panel [1, 4]: did not determine any ALT/AST elevations to be in the categories of probably or definitely related to study drug; cases of ALT or AST>3×ULN and bilirubin>2×ULN [1, 4]: no cases; Enterobiasis [1, 5]: 0 n; Folliculitis [1, 5]: 0 n; Oral candidiasis [1, 5]: 0 n; Orchitis [1, 5]: 0 n; Otitis media [1, 5]: 0 n; Acute sinusitis [1, 6]: 0 n; Appendicitis [1, 6]: 0 n; Bacterial vaginosis [1, 6]: 0 n; Herpes zoster [1, 6]: 0 n; Pharyngitis streptococcal [1, 6]: 0 n; Pneumonia [1, 6]: 0 n; Pyelonephritis [1, 6]: 0 n; Sepsis [1, 6]: 0 n; Acute sinusitis [1, 7]: 0 n; Appendicitis [1, 7]: 0 n; Bacterial vaginosis [1, 7]: 0 n; Herpes zoster [1, 7]: 0 n; Pharyngitis streptococcal [1, 7]: 0 n; Sepsis [1, 7]: 0 n; Acute sinusitis [1, 8]: 0 n; Appendicitis [1, 8]: 0 n; Enterobiasis [1, 8]: 0 n; Folliculitis [1, 8]: 0 n; Oral candidiasis [1, 8]: 0 n; Orchitis [1, 8]: 0 n; Otitis media [1, 8]: 0 n; Pelvic inflammatory disease [1, 8]: 0 n; Pharyngitis streptococcal [1, 8]: 0 n; Pneumonia [1, 8]: 0 n; Pyelonephritis [1, 8]: 0 n; Sepsis [1, 8]: 0 n; Tooth infection [1, 8]: 0 n; Pertussis [2]: 0 n; reduction in mean number of migraine days as compared to placebo ([3]; (4.9−3.7)/3.7*100, participants not taking concomitant preventive treatment): 32%; Change From OP in Mean Number of Total Migraine Days per Month in First Month, Least-squares mean, Difference (Rimegepant − Placebo) ([3]; Evaluable mITT subjects, P-value 0.0013): −0.9; Change From OP in Mean Number of Total Migraine Days per Month Overall, Least-squares mean, Difference (Rimegepant − Placebo) ([3]; Evaluable mITT subjects, P-value 0.0094): −0.7; Primary Endpoint: Change From OP in Mean Number of Total Migraine Days per Month in Last Month, Least-squares mean, Difference (Rimegepant − Placebo) ([3]; Evaluable mITT subjects, P-value 0.0176, significant in hierarchical testing): −0.8; MSQoL Restrictive Role Function Domain Score Change From Baseline at Week 12, Least-squares mean, Difference (Rimegepant − Placebo) ([3]; Evaluable mITT subjects, P-value 0.0358): 3.5; >=50% Reduction From OP in Mean Number of Moderate or Severe Migraine Days per Month in Last Month, Stratified Risk, Difference (Rimegepant − Placebo) ([3]; Evaluable mITT subjects, P-value 0.0734): 5.7; Rescue Medication Days per Month In Last Month, Least-squares mean, Difference (Rimegepant − Placebo) ([3]; Evaluable mITT subjects, P-value 0.3868): −0.2; MIDAS Total Score Change From Baseline at Week 12, Least-squares mean, Difference (Rimegepant − Placebo) ([3]; Evaluable mITT subjects, P-value 0.9616): −0.1
